Here are results for three compounds from patent US20260014285A1, “POLYPEPTIDE COMPOUND, AND COMPLEX AND USE THEREOF” (HANGZHOU HEALTHYTIDE BIOTECHNOLOGY CO., LTD., priority 2022, published 2026).

Residues, ends and D or L forms follow the SMILES beside them. *: point of attachment. DOTA = O=C(O)CN1CCN(CC(=O)O)CCN(CC(=O)*)CCN(CC(=O)O)CC1; PEG4 = NCCOCCOCCOCCOCCC(=O)O

The nature of the data set: in vivo. More on the design: species or system mice. The settings on record: M-NSG, mouse, iv, 100 uCi, total radioactivity. The procedure:
For example, labeling TM4 with radioactive ^68Ga: An aqueous solution of TM4 (DOTA-Asn-Asp-Val-Ile-Asn-OH) (20 μg) was added to the prepared ^68GaCl3 solution, and the pH was adjusted to 3-5 with aqueous sodium acetate and acetic acid. This system was reacted at 70-95° C. for 15 min, and then purified after the reaction was completed to obtain a labeled solution of ^68Ga-DOTA-Asn-Asp-Val-Ile-Asn-OH (^68Ga-TM4).
All compounds were labeled with ^68Ga in the same way as described above.
Approximately 100 μCi of ^68Ga injection was injected into the tail vein of M-NSG mice inoculated with H1975. […] Table 6 was obtained by image post-processing.

As for `CC[C@H](C)[C@H](NC(=O)[C@@H](NC(=O)[C@H](CC(=O)O)NC(=O)[C@H](CC(N)=O)NC(=O)CN1CCN(CC(=O)O)CCN(CC(=O)O)CCN(CC(=O)O)CC1)C(C)C)C(=O)N[C@@H](CC(N)=O)C(=O)O` [^68Ga-TM4, ^68Ga-DOTA-Asn-Asp-Val-Ile-Asn-OH, metal not drawn] ({DOTA}-NDVIN-OH), the tissue uptake at 1 h runs as follows: (% ID/g Bone) 0.3 %ID/g; (% ID/g Brain) 0.5 %ID/g; (% ID/g Heart) 0.96 %ID/g; (% ID/g Intestine) 0.56 %ID/g; (% ID/g Kidney) 4.8 %ID/g; (% ID/g Liver) 0.79 %ID/g. The tissue uptake at 1 h reads like this: (% ID/g Lung) 0.47 %ID/g; (% ID/g Muscle) 0.36 %ID/g; (% ID/g Tumor) 1.4 %ID/g.

In the case of `CC[C@H](C)[C@H](NC(=O)[C@@H](NC(=O)[C@H](CC(=O)O)NC(=O)[C@H](CC(N)=O)NC(=O)[C@H](CC(=O)O)NC(=O)CNC(=O)[C@H](CCCNC(=N)N)NC(=O)CCOCCOCCOCCOCCNC(=O)CN1CCN(CC(=O)O)CCN(CC(=O)O)CCN(CC(=O)O)CC1)C(C)C)C(=O)N[C@@H](CC(N)=O)C(=O)O` [^68Ga-TM7, metal not drawn] ({DOTA-PEG4}-RGDNDVIN-OH), the tissue uptake at 1 h by setting is: (% ID/g Bone) 0.24 %ID/g; (% ID/g Brain) 0.24 %ID/g; (% ID/g Heart) 0.5 %ID/g; (% ID/g Intestine) 0.45 %ID/g; (% ID/g Kidney) 64.5 %ID/g; (% ID/g Liver) 0.53 %ID/g. Further, the tissue uptake at 1 h by setting is: (% ID/g Lung) 0.3 %ID/g; (% ID/g Muscle) 0.28 %ID/g; (% ID/g Tumor) 0.75 %ID/g.

As for `CC[C@H](C)[C@H](NC(=O)[C@@H](NC(=O)[C@H](CC(=O)O)NC(=O)[C@H](CC(N)=O)NC(=O)CCOCCOCCOCCOCCNC(=O)CN1CCN(CC(=O)O)CCN(CC(=O)O)CCN(CC(=O)O)CC1)C(C)C)C(=O)N[C@@H](CC(N)=O)C(=O)O` [^68Ga-TM5, metal not drawn] ({DOTA-PEG4}-NDVIN-OH), the tissue uptake at 1 h runs as follows: (% ID/g Bone) 0.22 %ID/g; (% ID/g Brain) 0.25 %ID/g; (% ID/g Heart) 0.45 %ID/g; (% ID/g Intestine) 0.57 %ID/g; (% ID/g Kidney) 7.4 %ID/g; (% ID/g Liver) 0.5 %ID/g. In addition, the tissue uptake at 1 h is, setting by setting: (% ID/g Lung) 0.24 %ID/g; (% ID/g Muscle) 0.21 %ID/g; (% ID/g Tumor) 1.1 %ID/g.
